Reference: patent publication US20100216734A1, “MODULATION OF NEUROGENESIS BY NOOTROPIC AGENTS” (BrainCells, Inc., priority 2006, published 2010)
Several values for one entry are separate records, joined by “and”; a condition that tells them apart may be missing. Identical values can stand only once. Entries after “also recorded” stand apart in the source; their conditions may differ. Counter-ions that a name gives are not always drawn. Like-named read-outs stand apart in the source and are kept apart here. Peptide text beside a SMILES is read from it. * marks the point of attachment. PhAc = O=C(Cc1ccccc1)*

Columns and labels:
[1] = test system: Group I or Group III receptors; conditions: at sub-mM concentrations; cited from earlier work
mGluR3 = mGluR3 (Homo sapiens, UniProt Q14832); conditions: read-out: IC50 against mGluR3; cited from earlier work
mGluR2 = mGluR2 (Homo sapiens, UniProt Q14416); conditions: read-out: IC50 against mGluR2; cited from earlier work
[2] = test system: human neural stem cells (hNSCs); assay: Neuronal differentiation of human neural stem cells (TUJ-1 staining); type: cell-based; conditions: for effect on neuronal differentiation, agent alone (in words): dose response of agent alone; for maximal percent neuronal differentiation in the presence of 1.0 μM NBQX: with 1.0 μM NBQX
[3] = test system: KA, AMPA, and NMDA iGlu receptors; conditions: cited from earlier work
human mGlu3 receptors = human mGlu3 receptors (Homo sapiens, UniProt Q14832); conditions: in vitro; low nanomolar range; read-out: EC50 against human mGlu3 receptors; cited from earlier work
human mGlu2 receptors = human mGlu2 receptors (Homo sapiens, UniProt Q14416); conditions: in vitro; low nanomolar range; read-out: EC50 against human mGlu2 receptors; cited from earlier work
male F344 rats = assay: Novel object recognition in rat; type: in vivo; conditions: 0.5 mg/kg/day i.p. once daily for 7 days, p<0.05
Method: SGS-111 (0.5 mg/kg/day, i.p.) was administered to male F344 rats (n=12) once daily for 7 days. Animals were tested after 7 days of drug administration.
Shown in FIG. 9 is the mean number of visits to the novel object for vehicle and SGS-111 treated rats (±SEM). The y-axis represents mean visits. The x-axis indicates treatment. […] This difference is indicative of cognitive enhancement, an in vivo behavioral consequence of enhanced neurogenesis by SGS-111.

[4] = hNSCs, % of neuronal positive control
[5] = hNSCs, agent run independently, % of neuronal positive control, basal media subtracted, read-out: EC50 for neuronal differentiation, agent alone
[6] = hNSCs, test agent dose response with constant 0.316 μM AMPA, read-out: EC50 for neuronal differentiation in combination with 0.316 μM AMPA
[7] = Homo sapiens, Neural stem cell, hNSCs, agent run independently, % of neuronal positive control, basal media subtracted, read-out: EC50 for neuronal differentiation, agent alone

human mGlu2 receptors, sequence (Q14416 19-872): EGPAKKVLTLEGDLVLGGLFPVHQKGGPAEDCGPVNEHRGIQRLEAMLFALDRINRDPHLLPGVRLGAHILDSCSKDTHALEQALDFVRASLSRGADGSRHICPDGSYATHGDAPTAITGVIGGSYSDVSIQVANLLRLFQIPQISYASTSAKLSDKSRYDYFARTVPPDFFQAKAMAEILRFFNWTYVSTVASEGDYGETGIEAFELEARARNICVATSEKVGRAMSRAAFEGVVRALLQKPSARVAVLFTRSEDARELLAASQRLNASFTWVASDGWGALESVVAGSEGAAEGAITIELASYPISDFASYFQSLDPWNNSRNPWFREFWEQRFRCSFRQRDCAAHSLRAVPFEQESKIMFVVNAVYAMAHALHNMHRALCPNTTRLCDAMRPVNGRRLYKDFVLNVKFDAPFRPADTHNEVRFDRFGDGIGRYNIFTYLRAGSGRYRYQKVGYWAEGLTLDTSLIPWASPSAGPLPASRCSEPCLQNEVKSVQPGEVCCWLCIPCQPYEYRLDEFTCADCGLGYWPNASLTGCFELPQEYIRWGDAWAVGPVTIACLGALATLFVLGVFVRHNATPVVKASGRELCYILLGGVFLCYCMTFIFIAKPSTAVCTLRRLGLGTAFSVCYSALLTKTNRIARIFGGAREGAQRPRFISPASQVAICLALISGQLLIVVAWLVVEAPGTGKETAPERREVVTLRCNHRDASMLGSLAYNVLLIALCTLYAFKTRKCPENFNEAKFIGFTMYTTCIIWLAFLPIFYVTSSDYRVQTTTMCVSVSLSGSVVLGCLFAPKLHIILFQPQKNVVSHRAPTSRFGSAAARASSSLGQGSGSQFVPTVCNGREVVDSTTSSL
mGluR2, sequence (Q14416 19-872): as above
human mGlu3 receptors, sequence (Q14832 23-879): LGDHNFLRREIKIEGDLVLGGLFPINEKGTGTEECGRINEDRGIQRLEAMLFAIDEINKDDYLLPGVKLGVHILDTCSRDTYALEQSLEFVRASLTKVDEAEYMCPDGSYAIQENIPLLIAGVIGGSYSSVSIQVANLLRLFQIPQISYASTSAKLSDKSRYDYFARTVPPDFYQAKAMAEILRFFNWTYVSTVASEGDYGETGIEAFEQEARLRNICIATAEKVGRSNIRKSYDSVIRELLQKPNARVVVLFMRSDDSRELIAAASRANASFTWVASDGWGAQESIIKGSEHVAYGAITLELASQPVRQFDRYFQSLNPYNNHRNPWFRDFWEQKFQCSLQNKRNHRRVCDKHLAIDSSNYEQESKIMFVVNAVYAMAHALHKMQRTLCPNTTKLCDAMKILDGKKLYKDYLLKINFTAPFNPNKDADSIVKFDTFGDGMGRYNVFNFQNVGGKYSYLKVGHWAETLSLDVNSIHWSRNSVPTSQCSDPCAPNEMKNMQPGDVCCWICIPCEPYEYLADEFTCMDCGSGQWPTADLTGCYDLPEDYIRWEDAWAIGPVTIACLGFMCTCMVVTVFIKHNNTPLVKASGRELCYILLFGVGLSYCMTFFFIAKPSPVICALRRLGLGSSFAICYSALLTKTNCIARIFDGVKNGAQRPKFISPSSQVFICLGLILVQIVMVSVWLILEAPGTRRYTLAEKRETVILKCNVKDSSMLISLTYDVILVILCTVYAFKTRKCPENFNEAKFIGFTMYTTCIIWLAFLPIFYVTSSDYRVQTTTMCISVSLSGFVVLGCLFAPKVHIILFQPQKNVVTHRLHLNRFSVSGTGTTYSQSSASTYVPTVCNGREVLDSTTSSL
mGluR3, sequence (Q14832 23-879): as above

NC1(C(=O)O)CCc2cc(P(=O)(O)O)ccc21 (racemic) [APICA, (RS)-1-amino-5-phosphonoindan-1-carboxylic acid]
activity against Group I or Group III receptors (in words) [1]: no appreciable activity
IC50 (mGluR3): ~30 µM
IC50 (mGluR2): ~30 µM

Cc1onc(O)c1CC(N)C(=O)O (stereo not drawn) [AMPA, alpha-amino-3-hydroxy-5-methyl-4-isoxazolepropionic acid]
EC50 ([2]; Homo sapiens, Neural stem cell, read-out: EC50 for neuronal differentiation in the presence of 1.0 μM NBQX, hNSCs, with 1.0 μM AMPA antagonist NBQX): > 32 µM
Emax ([2]; Homo sapiens, Neural stem cell, read-out: maximum percent neuronal differentiation (maximum efficacy), agent alone): 50%
effect of AMPA at 0.316 μM alone on neuronal differentiation (in words) ([2]; hNSCs, AMPA 0.316 μM): failed to stimulate neuronal differentiation; also recorded: no effects on neuronal differentiation
effect on neuronal differentiation, agent alone (in words) ([2]; hNSCs): promoted neuronal differentiation
maximal percent neuronal differentiation in the presence of 1.0 μM NBQX [2, 4]: 7%

CC(=O)N1CCN(NC(=O)c2ccc(F)cc2)CC1 [FK-960]
EC50 [2, 5]: 7 µM
effect on neuronal differentiation, agent alone (in words) ([2]; hNSCs): promoted neuronal differentiation

N[C@](CC1c2ccccc2Oc2ccccc21)(C(=O)O)[C@H]1C[C@@H]1C(=O)O [LY341495, (2S)-2-amino-2-(1S,2S-2-carboxycycloprop-1-yl)-3-(xanth-9-yl) propanoic acid]
activity against KA, AMPA, and NMDA iGlu receptors (in words) [3]: substantially inactive

N[C@@]1(C(=O)O)CO[C@H]2[C@H](C(=O)O)[C@H]21 [LY379268, (−)-2-oxa-4-aminobicyclohexane-4,6-dicarboxylic acid]
EC50 (human mGlu3 receptors): < 0.01 µM
EC50 (human mGlu2 receptors): < 0.01 µM

NC(=O)COc1c(F)cc(SCCNS(=O)(=O)c2ccccc2)cc1F [PEPA]
effect on neuronal differentiation in the presence of 0.316 μM AMPA (in words) ([2]; hNSCs, constant 0.316 μM AMPA): stimulation of neuronal differentiation that was dose-dependent upon PEPA
effect on neuronal differentiation, agent alone (in words) ([2]; hNSCs): No effect on neuronal differentiation; also recorded: did not significantly enhance neuronal differentiation
EC50 [2, 6]: 0.69 µM

NC(=O)CN1CCCC1=O [Piracetam]
EC50 ([2]; Homo sapiens, Neural stem cell, hNSCs, with 1.0 μM AMPA antagonist NBQX, read-out: EC50 for neuronal differentiation in the presence of 1.0 μM NBQX): > 32 µM
Emax ([2]; Homo sapiens, Neural stem cell, hNSCs, % of neuronal positive control, read-out: maximum percent neuronal differentiation (maximum efficacy), agent alone): 60%
effect on neuronal differentiation, agent alone (in words) ([2]; hNSCs): promoted neuronal differentiation
maximal percent neuronal differentiation in the presence of 1.0 μM NBQX [2, 4]: 38%

CCOC(=O)CNC(=O)[C@@H]1CCCN1C(=O)Cc1ccccc1 [SGS-111] (PhAc-Pro-Gly-OEt)
maximum percent neuronal differentiation (maximum efficacy), agent alone [2, 4]: ~40%
maximum percent neuronal differentiation (maximum efficacy) in combination with 0.316 μM AMPA ([2]; hNSCs, % of neuronal positive control, constant 0.316 μM AMPA): approximately 60%
EC50 [2, 5]: 7.2 µM
effect on neuronal differentiation in the presence of 0.316 μM AMPA (in words) ([2]; hNSCs, constant 0.316 μM AMPA): a greater number of neurons at the highest concentration tested
EC50 [2, 6]: 4.2 µM
number of visits to / preference for the novel object versus familiar object (male F344 rats): statistically significant increase

CC(=O)NCCCS(=O)(=O)O [acamprosate]
EC50 [2, 7]: 16.4 µM
EC50 [2, 5]: 9.68 µM

CCCCN(CC)c1nc(C)nc2c1c(C)c(C)n2-c1c(C)cc(C)cc1C [antalarmin]
EC50 [2, 7]: 4.68 µM

O=C1CC2(CCCC2)CC(=O)N1CCCCN1CCN(c2ncccn2)CC1 [buspirone]
EC50 [2, 7]: 7.43 µM

O=C1CC[C@H](C(=O)N2CCCCC2)N1 [fasoracetam]
EC50 [2, 7]: 3.13 µM

COc1ccc2[nH]cc(CCNC(C)=O)c2c1 [melatonin]
EC50 [2, 7]: 320 µM

COC(=O)C(c1ccccc1)C1CCCCN1 (stereo not shown) [methylphenidate HCl, methylphenidate hydrochloride]
EC50 ([2]; Homo sapiens, Neural stem cell, read-out: EC50 for neuronal differentiation, agent alone, hNSCs, agent run independently, % of neuronal positive control, basal media subtracted): 1.29 µM

NCC1CC(=O)N(Cc2ccccc2)C1 (stereo not shown) [nebracetam]
Emax ([2]; Homo sapiens, Neural stem cell, hNSCs, % of neuronal positive control, constant 0.316 μM AMPA, read-out: maximum percent neuronal differentiation (maximum efficacy) in combination with 0.316 μM AMPA): 63%
effect on neuronal differentiation in the presence of 0.316 μM AMPA (in words) ([2]; hNSCs, constant 0.316 μM AMPA): promoted dose dependent neuronal differentiation
effect on neuronal differentiation, agent alone (in words) ([2]; hNSCs): failed to stimulate neuronal differentiation; also recorded: no effect on neuronal differentiation
EC50 [2, 6]: 0.28 µM and 0.97 µM

NC(=O)c1ncn([C@@H]2O[C@H](CO)[C@@H](O)[C@H]2O)n1 [ribavirin]
EC50 [2, 7]: 5.14 µM

CCCc1nc2c(C)cc(-c3nc4ccccc4n3C)cc2n1Cc1ccc(-c2ccccc2C(=O)O)cc1 [telmisartan]
EC50 [2, 7]: 2.75 µM

COC(=O)[C@@H]1[C@H]2C[C@H]3c4[nH]c5ccccc5c4CCN3C[C@@H]2CC[C@@H]1O [yohimbine]
EC50 [2, 7]: 0.62 µM
